According to patent publication US20120058135A1, “Identification and characterization of racemases, definition of protein signatures, and a test for detecting D-amino acid and for screening molecules capable of inhibiting the activity of racemase, especially proline racemase” (Institut Pasteur, priority 2010, published 2012):
Where “and” joins values, the source holds several entries; their conditions need not be identical. Equal values may be shown once.

What was measured:
D-AAO = molecular target: T1, D-AAO (Sus scrofa, UniProt P00371); assay: D-AAO microplate test for detection of D-amino acids; type: biochemical, swine; conditions: raw OD
T1 construct: purchased Sigma A-5222; host or cells: swine kidney
Excerpt: The D-AAO/HRP test described here above can also be used for this purpose with slight modifications. For that purpose, the racemase reaction step should be skipped and the microplate test should start straightforward at the II-1-2.1-2 step described above with the following remarks:
1) Standard: It should not be an equimolar mixture of D- and L-amino acid, but rather a serial dilution of D-Amino acids. The choice of amino acid is made according to the interest of the D-amino acid under investigation. The final volume in wells should be of 87 μl.
2) Negative control: It is made with the L-enantiomer of the D-amino acid under investigation. The final volume should be 87 μl.
3) Blank: It is made with 87 μl buffer*. (See paragraph II.1.1 Materials.)
4) Samples: The samples to be tested should be adjusted to pH 8.3 with buffer* and their final volumes should be of 87 μl per well.
5) Then, the procedure follows steps 3) to 6), as above.
Different L- and D-amino acids were tested, namely Tyrosine (Tyr), Valine (Val), Threonine (Thr), Glutamic acid (Glu), Lysine (Lys) and Tryptophan (Try).

D-AAO/HRP = D-AAO/HRP (Sus scrofa, UniProt P00371); assay: Interference with the D-AAO/HRP reaction; type: biochemical, swine
[1] = molecular target: native protein obtained from a soluble epimastigote fraction (proline racemase) (Trypanosoma cruzi, UniProt Q868H8); assay: Kinetic assays using the native protein from a soluble epimastigote fraction; type: biochemical
Excerpt: The progress of racemization reaction was monitored polarimetrically, as previously described (13). […] Values obtained were confirmed by using the Kaleïdagraph® program and Michaelis-Menten equation. […] C.

B cells = conditions: TcPRAC inhibited by the compound; cited from earlier work
CsPR = molecular target: T2, CsPR (Acetoanaerobium sticklandii, UniProt E3PTZ4); conditions: cited from earlier work
T2 sequence (E3PTZ4 1-335): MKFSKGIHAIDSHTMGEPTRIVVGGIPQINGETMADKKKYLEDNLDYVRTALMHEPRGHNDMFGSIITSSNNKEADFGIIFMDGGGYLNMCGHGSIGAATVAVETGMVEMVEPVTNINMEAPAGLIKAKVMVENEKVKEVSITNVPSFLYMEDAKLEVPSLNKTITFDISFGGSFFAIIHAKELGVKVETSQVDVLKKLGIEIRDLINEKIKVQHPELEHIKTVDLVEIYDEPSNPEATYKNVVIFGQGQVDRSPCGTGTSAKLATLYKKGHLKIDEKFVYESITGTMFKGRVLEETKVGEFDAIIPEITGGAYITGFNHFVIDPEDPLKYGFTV

[2] = test system: non-infected monkey cell cultures

T1 sequence (P00371 whole entry): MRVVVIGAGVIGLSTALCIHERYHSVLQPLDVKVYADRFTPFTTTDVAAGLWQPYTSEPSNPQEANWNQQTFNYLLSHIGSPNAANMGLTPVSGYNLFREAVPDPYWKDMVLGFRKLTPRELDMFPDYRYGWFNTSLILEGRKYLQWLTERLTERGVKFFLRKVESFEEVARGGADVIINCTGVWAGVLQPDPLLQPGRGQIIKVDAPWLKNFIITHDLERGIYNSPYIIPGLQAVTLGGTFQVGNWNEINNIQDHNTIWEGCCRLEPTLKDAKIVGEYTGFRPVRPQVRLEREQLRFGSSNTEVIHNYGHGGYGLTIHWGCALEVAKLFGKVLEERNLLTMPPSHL
D-AAO/HRP, sequence (P00371 whole entry): as above
native protein obtained from a soluble epimastigote fraction (proline racemase), sequence (Q868H8 whole entry): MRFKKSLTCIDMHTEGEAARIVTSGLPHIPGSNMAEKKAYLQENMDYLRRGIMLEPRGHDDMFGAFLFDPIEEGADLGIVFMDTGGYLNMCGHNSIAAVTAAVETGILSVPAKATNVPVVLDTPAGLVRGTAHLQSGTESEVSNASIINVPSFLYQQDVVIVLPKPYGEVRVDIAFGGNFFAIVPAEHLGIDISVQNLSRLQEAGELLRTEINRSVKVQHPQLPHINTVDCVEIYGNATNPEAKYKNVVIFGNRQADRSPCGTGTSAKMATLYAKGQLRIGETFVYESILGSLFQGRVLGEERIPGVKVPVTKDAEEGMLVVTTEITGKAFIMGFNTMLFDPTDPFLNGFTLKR

**Q.** Which “Optical density at 490 nm after D-AAO reaction” value (“Optical density at 490 nm” for short) (D-AAO; D-enantiomers, 6.25 mM) does the source give for `N[C@@H](CCC(=O)O)C(=O)O` [D-Glu, Glutamic acid] here?
**A.** 0.147 and 0.116

**Q.** With `NCCCC[C@H](N)C(=O)O` [D-Lys, Lysine] as the molecule, how does the “Optical density at 490 nm” value (D-AAO; D-enantiomers, 6.25 mM) read?
**A.** 0.243 and 0.157

**Q.** For `C[C@@H](O)[C@H](N)C(=O)O` [D-Thr, Threonine], which “Optical density at 490 nm” value (D-AAO; D-enantiomers, 6.25 mM) is on record?
**A.** 0.215 and 0.157

**Q.** With `N[C@@H](Cc1c[nH]c2ccccc12)C(=O)O` [D-Try, Tryptophan] as the molecule, how does the “Optical density at 490 nm” value (D-AAO; D-enantiomers, 6.25 mM) read?
**A.** 0.615 and 0.662

**Q.** Which “Optical density at 490 nm” value (D-AAO; D-enantiomers, 6.25 mM) does the source give for `N[C@@H](Cc1ccc(O)cc1)C(=O)O` [D-Tyr, Tyrosine] here?
**A.** 1.317 and 0.991

**Q.** Which “Optical density at 490 nm” value (D-AAO; D-enantiomers, 6.25 mM) does the source give for `CC(C)[C@H](N)C(=O)O` [D-Val, Valine] here?
**A.** 1.683 and 1.612

**Q.** Which results are given for `O=C(O)[C@H]1CCCN1` [D-pro, D-Proline]?
**A.** Optical density at 490 nm after D-AAO reaction (D-AAO; 0.05 mM): 0.173; Optical density at 490 nm after D-AAO reaction (D-AAO; 0.09 mM): 0.213 and 0.215; Optical density at 490 nm after D-AAO reaction (D-AAO; 0.19 mM): 0.308 and 0.32; Optical density at 490 nm after D-AAO reaction (D-AAO; 0.39 mM): 0.496 and 0.504; Optical density at 490 nm after D-AAO reaction (D-AAO; 0.77 mM): 0.809 and 0.824; Optical density at 490 nm after D-AAO reaction (D-AAO; 1.55 mM): 1.234 and 1.221; Optical density at 490 nm after D-AAO reaction (D-AAO; 3.09 mM): 1.716 and 1.879; Optical density at 490 nm after D-AAO reaction (D-AAO; 6.19 mM): 1.983 and 1.949; Optical density at 490 nm after D-AAO reaction (D-AAO; 12.37 mM): 1.814 and 1.976; Optical density at 490 nm after D-AAO reaction (D-AAO; 24.75 mM): 1.757 and 1.885; Optical density at 490 nm after D-AAO reaction (D-AAO; 49.5 mM): 1.961 and 2.004

**Q.** With `N[C@@H](CCC(=O)O)C(=O)O` [L-Glu, Glutamic acid] as the molecule, how does the “Optical density at 490 nm” value (D-AAO; L-enantiomers, 12.5 mM) read?
**A.** 0.131 and 0.141

**Q.** With `NCCCC[C@H](N)C(=O)O` [L-Lys, Lysine] as the molecule, how does the “Optical density at 490 nm” value (D-AAO; L-enantiomers, 12.5 mM) read?
**A.** 0.125 and 0.131

**Q.** For `O=C(O)[C@@H]1CCCN1` [L-Proline], which “effect on D-AAO/HRP reaction” value (D-AAO/HRP) is on record?
**A.** Inhibits

**Q.** Which “Optical density at 490 nm” value (D-AAO; L-enantiomers, 12.5 mM) does the source give for `C[C@@H](O)[C@H](N)C(=O)O` [L-Thr, Threonine] here?
**A.** 0.124 and 0.128

**Q.** Which “Optical density at 490 nm” value (D-AAO; L-enantiomers, 12.5 mM) does the source give for `N[C@@H](Cc1c[nH]c2ccccc12)C(=O)O` [L-Try, Tryptophan] here?
**A.** 0.131 and 0.138

**Q.** With `N[C@@H](Cc1ccc(O)cc1)C(=O)O` [L-Tyr, Tyrosine] as the molecule, how does the “Optical density at 490 nm” value (D-AAO; L-enantiomers, 12.5 mM) read?
**A.** 0.193 and 0.141

**Q.** For `CC(C)[C@H](N)C(=O)O` [L-Val, Valine], which “Optical density at 490 nm” value (D-AAO; L-enantiomers, 12.5 mM) is on record?
**A.** 0.135 and 0.129

**Q.** Which “effect on D-AAO/HRP reaction” value (D-AAO/HRP) does the source give for `O=C(O)c1ccc[nH]1` [PAC, pyrrole-2-carboxylic acid] here?
**A.** does not influence DAAO/HRP reaction

**Q.** And the Ki [1]?
**A.** 1150 nM

**Q.** And the “TcPRAC B cell mitogenic ability” value (B cells)?
**A.** total loss of TcPRAC B cell mitogenic ability

**Q.** What about the Ki (CsPR) of the same molecule?
**A.** 18 µM

**Q.** And the “interference with cellular growth” value [2]?
**A.** do not interfere with cellular growth
